Laboratory results published in US7030102B1, “Highly bioavailable coenzyme Q-10 cyclodextrin complex” (BioActives, LLC, priority 2003, dated 2006).

Assays:
Caco2 cells = test: In vitro uptake of CoQ-10 in Caco2 cells; type: in vitro ADME, human; settings: 100 μg CoQ-10/flask, sum of reduced and oxidized forms, control = endogenous level
Protocol: The cellular uptake of the CoQ-10 from the cyclodextrin complexes was determined in vitro in model cell culture systems. For example, the uptake was determined using an in vitro Caco2 intestinal cell culture model indicative of in vivo intestinal absorption. This cell line has been used as a model system to examine the selective characteristics of intestinal absorption of compounds, such as vitamin E (Traber et al., 1990), retinol, beta lactoglobulin, palmitic acid (Puyol et al., 1995), carotenoids (Garrett et al., 1999), and polyamines (Turchanowa et al., 2001). […] CoQ-10 incorporated into mixed micelles was used for comparison.
The uptake of CoQ-10 from the cyclodextrin complex dried by different methods was compared to commercially available CoQ-10 powder (99% pure, used in hard capsules) and CoQ-10 powder incorporated into mixed micelles, simulating the digestive process.
The mixed micelles were prepared by the method of Garrett et al. (1999) using sodium taurocholate (bile salt), mono-acylglycerol, oleic acid, phosphatidyl choline, lysophosphatidylcholine, and CoQ-10 in phosphate buffered saline (PBS). The CoQ-10/cyclodextrin complexes were dispersed in PBS. The stock solutions contained 30 mg CoQ-10/10 ml.
The cellular uptake of CoQ-10 as a function of media concentration and exposure time was determined based on the method of Garrett et al. (1999). Caco-2 (ATCC, Rockville, Md.) cells were maintained in high glucose DMEM with 15 mM HEPES and 10% heat inactivated fetal bovine serum, nonessential amino acids, glutamine, and pyruvate in a humidified atmosphere at 5% CO2 and 37° C. The cells were allowed to reach confluency (5–6 days after subculture) and differentiate (14 days) in 25 cm^2 flasks before the start of the experiment.
The stock test samples were diluted in the culture medium for the experiment. The monolayers were washed with PBS before adding the test samples at known CoQ-10 concentration (100 μg/flask). […] The cultures were incubated as before and the CoQ-10 uptake was terminated at indicated times. […] The chromatograms were monitored at 275 nm.

[1] = tested on: Caco2 intestinal cell model; settings: Totterman et al. 1997, Ono et al. 2001; cited from earlier work

| Molecule | Cellular Total CoQ-10 (Treated/Control) (Caco2 cells; 5 hr incubation) | Cellular Total CoQ-10 (Treated/Control) (Caco2 cells; 10 hr incubation) | Cellular Total CoQ-10 (Treated/Control) (Caco2 cells; 24 hr incubation) | Cytotoxicity / effect on Caco2 cells [1] |
| --- | --- | --- | --- | --- |
| COC1=C(OC)C(=O)C(C/C=C(\C)CC/C=C(\C)CC/C=C(\C)CC/C=C(\C)CC/C=C(\C)CC/C=C(\C)CC/C=C(\C)CC/C=C(\C)CC/C=C(\C)CCC=C(C)C)=C(C)C1=O [CoQ-10 Powder, Coenzyme Q-10] | 1.0 | 1.0 | 1.0 | – |
| OC[C@H]1O[C@@H]2O[C@H]3[C@H](O)[C@@H](O)[C@@H](O[C@H]4[C@H](O)[C@@H](O)[C@@H](O[C@H]5[C@H](O)[C@@H](O)[C@@H](O[C@H]6[C@H](O)[C@@H](O)[C@@H](O[C@H]7[C@H](O)[C@@H](O)[C@@H](O[C@H]8[C@H](O)[C@@H](O)[C@@H](O[C@H]9[C@H](O)[C@@H](O)[C@@H](O[C@H]1[C@H](O)[C@H]2O)O[C@@H]9CO)O[C@@H]8CO)O[C@@H]7CO)O[C@@H]6CO)O[C@@H]5CO)O[C@@H]4CO)O[C@@H]3CO [γ-Cyclodextrin] | – | – | – | least effect even at a relatively high concentration of 150 mM |
| dimethyl β-cyclodextrin | – | – | – | dose dependent cytotoxicity |
| maltosyl-α-cyclodextrin | – | – | – | less toxic as compared to α-cyclodextrin |
